Measurements published in PMC8324038 (ACS infectious diseases, 2021).
Converted amounts (≈) assume the structure as drawn.

How the values were obtained:
[1] = tested on: E. coli DH10B pBC SK(+) empty; test: MIC susceptibility testing, empty vector control; details: Escherichia coli
[2] = biological target: T1, purified PenA1 β-lactamase (Burkholderia multivorans, UniProt A0A0H3KN52); test: Acylation rate k2/K; format: biochemical; details: acylation rate (kinact/KI or k2/K), nitrocefin 100 μM reporter
T1 sequence (A0A0H3KN52 28-302): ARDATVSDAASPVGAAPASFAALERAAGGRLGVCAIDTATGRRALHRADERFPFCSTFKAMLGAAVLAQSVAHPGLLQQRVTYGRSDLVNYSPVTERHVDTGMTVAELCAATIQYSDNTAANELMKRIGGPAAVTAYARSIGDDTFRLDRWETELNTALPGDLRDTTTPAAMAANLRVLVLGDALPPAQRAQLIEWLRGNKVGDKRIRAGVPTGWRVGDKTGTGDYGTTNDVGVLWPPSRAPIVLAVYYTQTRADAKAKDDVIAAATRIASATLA

[3] = biological target: T1, purified PenA1 β-lactamase; test: Steady-state inhibition kinetics, Ki-app, purified enzyme; format: biochemical; details: read-out: Km nitrocefin, used for correction of Ki-app

Row | SMILES | k2/K [2] | further results
1 | CCN1CCN(C(=O)N[C@@H](C(=O)N[C@@H]2C(=O)N3[C@@H]2SC(C)(C)[C@@H]3C(=O)O)c2ccccc2)C(=O)C1=O [Piperacillin] | – | MIC [1]: 2 µg/mL (≈ 3.86 µM)
2 | Cn1cc[n+](C[C@@]2(C)[C@H](C(=O)[O-])N3C(=O)C[C@H]3S2(=O)=O)n1 [enmetazobactam] | 6.3 ± 2.0 × 10^5 M^−1 s^−1 | –
3 | O=C(O)[C@H]1/C(=C/CO)O[C@@H]2CC(=O)N21 [clavulanic acid] | 340 to 2e+06 M⁻¹ s⁻¹ | –
4 | O=C(Cc1cccs1)N[C@@H]1C(=O)N2C(C(=O)O)=C(/C=C/c3ccc([N+](=O)[O-])cc3[N+](=O)[O-])CS[C@H]12 [nitrocefin] | – | Km [3]: 147 µM
